The text below walks through data of paper PMC5656836, “Distinct activation mechanisms trigger the trypanocidal activity of DNA damaging prodrugs” (Molecular Microbiology, 2017).

Entries after “also recorded” stand apart in the source; their conditions may differ. Like-named read-outs stand apart in the source and are kept apart here.

The test system of experiment [1] is T. brucei over expressing TbNTR (Tbntr++). Nature of the experiment: microbe, parasite or virus in culture. To be noted: for EC50: Trypanosoma brucei, read-out: EC50 Tbntr++. The experiment is classed as cell-based.
Experiment [2] relates to differentiated THP‐1 cells. Nature of the experiment: Mammalian inhibition assay, differentiated THP-1 cells. The experiment is classed as cell-based. To be noted: Homo sapiens, read-out: THP‐1 EC50.
In experiment [3] the test system is mouse peritoneal macrophages. Kind of experiment: Toxicity to mouse peritoneal macrophages (cell counts, Giemsa). Conditions: Peritoneal macrophage, 120 h, read-out: EC50 towards mouse peritoneal macrophages. It counts as cell-based, BALB/c mice.
For experiment [4], the system named is T. brucei over expressing TbCPR2 (Tbcpr2++). Nature of the experiment: microbe, parasite or virus in culture. It counts as cell-based. To be noted: for EC50: Trypanosoma brucei, read-out: EC50 Tbcpr2++.
A further experiment deals with L. major promastigotes. Kind of experiment: Growth inhibition of L. major promastigotes (resazurin). To be noted: for EC50: read-out: L. major EC50. It counts as cell-based. In general terms: Alamar Blue is a resazurin reagent that responds to reducing activity.
The subject of experiment [5] is ΔTbsnm1 Tbntr++ T. brucei. It counts as cell-based.
For experiment [6], the system named is bloodstream form T. brucei. Nature of the experiment: Growth inhibition of wild type / control bloodstream form T. brucei (resazurin). The experiment is classed as cell-based.
Another experiment deals with T. cruzi epimastigotes. Nature of the experiment: Growth inhibition of T. cruzi epimastigotes (resazurin). It counts as cell-based. To be noted: for EC50: Trypanosoma cruzi, 336 h, epimastigotes, 14 days, read-out: T. cruzi EC50.
Experiment [7] relates to T. brucei Tbsnm1 null mutants (ΔTbsnm1). Nature of the experiment: microbe, parasite or virus in culture. The experiment is classed as cell-based. To be noted: for EC50: Trypanosoma brucei, read-out: EC50 ΔTbsnm1.
In experiment [8] the test system is differentiated THP‐1 cells. Conditions: read-out: THP‐1 EC50, ref Voak et al., 2013; cited from earlier work.
Another experiment relates to RH1^RC1 T. brucei. Nature of the experiment: microbe, parasite or virus in culture. The experiment is classed as cell-based. Conditions: for EC50: read-out: EC50 RH1^RC1.
The subject of experiment [9] is T. brucei Tbntr heterozygote line. The experiment is classed as cell-based.
The subject of another experiment is Wild type T. brucei. The experiment is classed as cell-based.
In the next experiment the test system is RH1^RC2 T. brucei. Kind of experiment: microbe, parasite or virus in culture. It counts as cell-based. To be noted: read-out: EC50 RH1^RC2.
Experiment [10] deals with ΔTbsnm1 Tbcpr2++ T. brucei. The experiment is classed as cell-based.
Where [11] appears, read: Trypanosoma brucei, read-out: EC50 Control.
Where [12] appears, read: Leishmania major, 144 h, promastigotes, 6 days.
Where [13] appears, read: Trypanosoma brucei, Table 3, BSF T. brucei wild type, read-out: EC50 Wild type.
Setting [14] is: Trypanosoma brucei, Table 4, wild type T. brucei, read-out: EC50 Control.
Setting [15] is: 72 h, differentiated THP‐1 cells, 3 days.
Where [16] appears, read: non‐cancerous primary cells, up to 5 days.
Setting [17] is: Selectivity Index: fold difference in EC50 of THP‐1 line relative to parasite.
The mark [18] stands for this setting: Trypanosoma brucei, Table 2, parasites expressing wild type levels, read-out: EC50 Control.
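For ratio (fold difference in EC50 between RH1^RC1 and wild type) in this document: resistant clone selected by stepwise exposure to the aziridinyl benzoquinone prodrug in culture.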

As for `O=C1C=C(N2CC2)C(=O)C(N2CC2)=C1N1CC1` [TZQ], the “Fold difference in EC50 Tbntr++ relative to control” value in experiment [1] is listed as 60 ± 9 (0.27 ). For the same compound, the EC50 is 60 nM in [1]; below 100 nM in experiment [2] (THP-1, 72 h); below 100 nM in experiment [3]; 284 nM in experiment [4]; 179 ± 1 nM in experiment [6] (Trypanosoma brucei, 72 h, read-out: T. brucei EC50); 225 ± 26 nM in experiment [6] (setting [11]). In addition, the figures for the EC50 in [6] (read-out: EC50 Control) and in experiment [7] were 253 ± 33 nM and 46 ± 1 nM, respectively. In addition, the “Fold difference in EC50 Tbcpr2++ relative to control” value in experiment [4] was 284 ± 13 (1.26). The “L. major SI” value with L. major promastigotes was below 11. Further, the “Fold increase in susceptibility of ΔTbsnm1 Tbntr++ versus wild type” value in [5] was 15 fold. Besides, the “T. brucei SI” value in experiment [6] is below 1. Besides, the “T. cruzi SI” value in the experiment on T. cruzi epimastigotes was below 33. In experiment [7], the “Ratio of EC50 values ΔTbsnm1 / control” value came out at 0.18. For the same compound, in experiment [7], the “Susceptibility of Tbsnm1 null mutants relative to wild type / control (fold more susceptible)” value is 2.7 fold.
In the case of `CC1CS(=O)(=O)CCN1/N=C/c1ccc([N+](=O)[O-])o1` (centres unmarked) [Nifurtimox, reference compound], the EC50 stood at 315 nM in experiment [1]; 6280 ± 40 nM in the experiment with L. major promastigotes (setting [12]); 2700 ± 100 nM in experiment [6] (setting [13]); 2850 ± 20 nM in [6] (setting [14]); 2980 ± 30 nM in [6] (setting [11]); 2600 ± 400 nM in the experiment on T. cruzi epimastigotes. Moreover, the values for the EC50 in [7] and in experiment [8] were 2250 ± 90 nM and above 100000 nM, respectively.
`CC1=C(N2CC2)C(=O)C(CO)=C(N2CC2)C1=O` [RH1]: in experiment [1], the “Fold difference in EC50 Tbntr++ relative to control” value is 3 ± 1 (0.16 ). Further, the “Susceptibility of TbNTR over expressing T. brucei relative to controls / wild type (fold more susceptible)” value in experiment [1] is on record as “fivefold”. Also, the EC50 was 3 nM in experiment [1]; 86 ± 3 nM in the experiment with RH1^RC1 T. brucei (Trypanosoma brucei); 83 ± 2 nM in the experiment with RH1^RC1 T. brucei; below 100 nM in experiment [2] (setting [15]); below 100 nM in [3] (setting [16]); 20 nM in experiment [4]. The EC50 was below 100 nM with L. major promastigotes (setting [12]); 68 ± 1 nM in the experiment with L. major promastigotes (promastigotes, 6 days); 19 ± 1 nM in experiment [6] (setting [18]); 25 ± 6 nM in experiment [6] (setting [13]); 19 ± 1 nM in experiment [6] (setting [14]); 5 ± 1 nM in experiment [7]. The EC50 in the experiment with RH1^RC2 T. brucei (Trypanosoma brucei) was 91 ± 11 nM; in the experiment on RH1^RC2 T. brucei, 92 ± 1 nM. In addition, the “Doubling time of resistant clones” value in the experiment with RH1^RC1 T. brucei was around 10.5 h. In addition, the “Fold less sensitive, RH1^RC lines versus controls” value in the experiment on RH1^RC1 T. brucei is on record as around 4.5 fold. Moreover, in the experiment with RH1^RC1 T. brucei, the “Fold less sensitive, RH1^RC lines versus wild type” value is listed as around 3.5 fold. The “ratio (fold difference in EC50 between RH1^RC1 and wild type)” value with RH1^RC1 T. brucei was 3.3. The “EC50 of Tbntr heterozygote line relative to wild type (fold greater)” value in [9] was “approximately 2.5 fold”. Besides, the “Cells in G1/S phase (1N1K)” value with Wild type T. brucei is 37%. For the same compound, the “Cells in G2/M phase (1N2K)” value in the experiment on Wild type T. brucei turned out to be 58%. Moreover, the “Fold difference in EC50 Tbcpr2++ relative to control” value in experiment [4] is 20 ± 3 (1.05). Further, the “L. major SI” value in the experiment with L. major promastigotes is reported as below 1. In addition, in the experiment on L. major promastigotes (promastigotes, 6 days), the “L. major EC50” value was “high potency”. Moreover, in experiment [5], the “Fold increase in susceptibility of ΔTbsnm1 Tbntr++ versus wild type” value was determined as 15 fold. Also, in [6] (setting [17]), the “T. brucei SI” value is listed as below 5. In experiment [6] (Trypanosoma brucei, 5 nM), this compound returned an inhibition at 0.005 µM of around 10%. In addition, the “Growth of wild type T. brucei” value in experiment [6] (medium containing RH1 (40 nM), after 24 hrs) is “no growth”. Further, in the experiment on T. cruzi epimastigotes, the “T. cruzi SI” value is below 33. The “Ratio of EC50 values ΔTbsnm1 / control” value in experiment [7] worked out at 0.26. Also, the “Susceptibility of Tbsnm1 null mutants relative to wild type / control (fold more susceptible)” value in [7] is “threefold”.
For the compound `O=C1C(N2CC2)=C(N2CC2)C(=O)C(N2CC2)=C1N1CC1` [ABQ22], in experiment [1], the “Fold difference in EC50 Tbntr++ relative to control” value is listed as 148 ± 9 (1.07). In addition, the EC50 was 148 nM in experiment [1]; 232 ± 27 nM in the experiment with RH1^RC1 T. brucei (Trypanosoma brucei); 138 ± 25 nM in experiment [2] (setting [15]); 120 nM in [3] (setting [16]); 20 nM in experiment [4]; 218 ± 20 nM with L. major promastigotes (setting [12]). Also, the EC50 in [6] (Trypanosoma brucei, 72 h, bloodstream form, 3 days, Table 1, activity of some compounds previously reported (Hall et al., 2012), read-out: T. brucei EC50) was found to be 148 ± 1 nM; in experiment [6] (setting [18]) it was 138 ± 25 nM; in experiment [6] (setting [13]), 197 ± 31 nM; in [6] (setting [14]), 138 ± 25 nM; in the experiment on T. cruzi epimastigotes, 55 ± 2 nM; in experiment [7] it was 21 ± 5 nM. Moreover, the “Susceptibility of RH1 selected (RH1^RC) lines relative to wild type” value in the experiment on RH1^RC1 T. brucei is recorded as “equally sensite”. Moreover, in the experiment with RH1^RC1 T. brucei, the “ratio (fold difference in EC50 between RH1^RC1 and wild type)” value came to 1.2. The “Fold more sensitive, ΔTbsnm1 Tbcpr2++ versus wild type” value in experiment [10] is listed as 12.5 fold. The “Fold difference in EC50 Tbcpr2++ relative to control” value in experiment [4] is listed as 20 ± 3 (0.14 ). For the same compound, the “Susceptibility of TbCPR2 or 3 over expressing lines relative to control cells” value in [4] is “hypersensitive; also recorded: sevenfold”. Moreover, in the experiment on L. major promastigotes, the “L. major SI” value came out at 1. Besides, the “T. brucei SI” value in experiment [6] (setting [17]) is given as 1. Also, in the experiment with T. cruzi epimastigotes, the “T. cruzi SI” value is 3. In addition, in experiment [7], the “Ratio of EC50 values ΔTbsnm1 / control” value stood at 0.15. In addition, the “Susceptibility of Tbsnm1 null mutants relative to wild type / control (fold more susceptible)” value in [7] is “sevenfold”.

What is called EC50 is the concentration needed to bring the measured effect to its halfway point. Broadly, the inhibition is the share of the control response that was lost under treatment.
